Reference: patent US20240189289A1, “INHIBITORS OF EPHB3 SIGNALING” (The Brigham and Women`s Hospital, Inc., priority 2021, published 2024)
“Also recorded” adds a separate entry of the source. Each block holds one compound with its values, some of them ahead of it.

How the values were obtained:
astrocytes = test: Mitochondrial ROS measurement (MitoSOX) in astrocytes; assay type: cell-based, mouse; details: Rotenone and Antimycin A given together
Protocol: Mitochondrial ROS measurement. 50,000 astrocytes were seeded per well in 96-well black plates and rested for 2 days in complete medium, followed by activation or inhibitor pretreatment for 24 h. MitoSOX red (Thermo Fisher Scientific, #M36008) was used to stain for mitochondrial ROS for 10 min following the manual and the signal was detected on Infinite M1000 PRO Microplate Reader (Tecan). The fluorescent signal was normalized to cell number estimated using CyQUANT cell proliferation assay kit (Invitrogen, #C7026) first and then compared to control group for data analysis.

splenic CD11b+ monocytes = test: Monocyte migration assay with astrocyte-conditioned medium; assay type: cell-based, mouse; details: ACM from astrocytes pre-treated with compound
Protocol: (§1) Generation of astrocyte-conditioned medium (ACM). […] After 24 h, cells were extensively washed with 1×PBS, and incubated with fresh astrocyte complete medium for 48 h. Supernatants were spun down and kept at −80° C. until tested in migration and neurotoxicity assays.
Monocyte Migration Assay. Monocytes were purified from spleens from C57BL/6J mice using CD11b Microbeads (#130-049-601, Miltenyi) following the manufacturer's instructions. 100,000 monocytes were seeded in the upper chamber of a 24-well cell culture transwell, with a 5 μm pore size (#3421, Thermo Fisher Scientific), containing 300 μL of astrocyte-conditioned medium (as detailed earlier) in the bottom chamber. After 3 h incubation at 37° C. in 5% CO2, cells were collected from the lower chamber after shaking and accutase solution incubation (#A6964, Sigma-Aldrich) and quantified by FACS.

N2A neuronal cells = test: Neurotoxicity assay of astrocyte-conditioned medium (LDH release); assay type: cell-based, mouse; details: ACM from astrocytes pre-treated with compound, LDH release after 24 h
Protocol: as §1
Neurotoxicity Assay. N2A neuronal cells (#CCL-131, ATCC) were plated and pre-activated with 100 ng/mL mouse IFNγ (#485-MI-100; R&D Systems) for 24 h.
Thereafter, after extensive washing with 1×PBS, medium was replaced with ACM and after 24 h the supernatant was harvested for cytotoxicity evaluation by measuring LDH release with CytoTox 96 nonradioactive cytotoxicity assay kit (#G1780, Promega) following the manufacturer's protocol.

EphB3 = molecular target: T1, EphB3 (Homo sapiens, UniProt P54753); test: EphB3 radiometric kinase activity assay (33P ATP filter binding); assay type: biochemical; details: for remaining activity at 0.01 µM: 10 nM compound, read-out: EphB3 % act 10 nM; for remaining activity at 0.1 µM: 100 nM compound, read-out: EphB3 % act 100 nM; for remaining activity at 0.3 µM: 300 nM compound, read-out: EphB3 % act 300 nM
T1 sequence (P54753 34-998): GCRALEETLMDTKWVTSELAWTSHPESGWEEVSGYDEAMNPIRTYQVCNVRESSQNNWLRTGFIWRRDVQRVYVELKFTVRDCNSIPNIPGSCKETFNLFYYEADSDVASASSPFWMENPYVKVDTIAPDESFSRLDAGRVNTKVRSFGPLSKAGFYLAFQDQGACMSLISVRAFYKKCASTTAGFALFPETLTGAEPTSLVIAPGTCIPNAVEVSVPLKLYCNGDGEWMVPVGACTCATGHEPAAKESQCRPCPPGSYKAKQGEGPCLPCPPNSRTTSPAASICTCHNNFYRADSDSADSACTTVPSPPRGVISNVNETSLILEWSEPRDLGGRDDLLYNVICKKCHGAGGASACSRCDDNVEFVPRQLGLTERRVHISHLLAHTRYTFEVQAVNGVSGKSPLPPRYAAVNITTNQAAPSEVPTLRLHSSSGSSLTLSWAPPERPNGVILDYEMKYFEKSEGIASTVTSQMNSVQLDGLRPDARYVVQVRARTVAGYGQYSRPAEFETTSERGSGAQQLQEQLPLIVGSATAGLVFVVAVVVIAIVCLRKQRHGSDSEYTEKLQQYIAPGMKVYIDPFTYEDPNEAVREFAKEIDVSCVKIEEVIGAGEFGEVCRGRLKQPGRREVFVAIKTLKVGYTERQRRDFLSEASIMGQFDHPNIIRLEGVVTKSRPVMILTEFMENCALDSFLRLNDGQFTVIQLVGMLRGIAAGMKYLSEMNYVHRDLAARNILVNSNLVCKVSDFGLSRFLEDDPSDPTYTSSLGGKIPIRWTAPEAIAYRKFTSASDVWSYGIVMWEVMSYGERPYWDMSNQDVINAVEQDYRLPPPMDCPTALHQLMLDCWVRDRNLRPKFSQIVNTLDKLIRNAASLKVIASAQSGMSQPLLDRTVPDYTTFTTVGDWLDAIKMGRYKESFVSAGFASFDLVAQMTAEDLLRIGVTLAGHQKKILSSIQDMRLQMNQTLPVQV
Protocol: EphB3 radiometric kinase activity assay. To study the EphB3 kinase activity, a radioactive filter binding assay using 33P ATP was performed as described at the […] International Centre for Kinase profiling. […] The mix was harvested onto P81 filter plates and counts were read on a Topcount NXT.

EphB4 = molecular target: T2, EphB4 (Homo sapiens, UniProt P54760); test: Eph receptor kinase activity assay (radiometric), EphB4; assay type: biochemical; details: for remaining activity at 0.01 µM: 10 nM compound, read-out: EphB4 % act 10 nM; for remaining activity at 0.1 µM: 100 nM compound, read-out: EphB4 % act 100 nM; for remaining activity at 0.3 µM: 300 nM compound, read-out: EphB4 % act 300 nM
T2 sequence (P54760 16-987): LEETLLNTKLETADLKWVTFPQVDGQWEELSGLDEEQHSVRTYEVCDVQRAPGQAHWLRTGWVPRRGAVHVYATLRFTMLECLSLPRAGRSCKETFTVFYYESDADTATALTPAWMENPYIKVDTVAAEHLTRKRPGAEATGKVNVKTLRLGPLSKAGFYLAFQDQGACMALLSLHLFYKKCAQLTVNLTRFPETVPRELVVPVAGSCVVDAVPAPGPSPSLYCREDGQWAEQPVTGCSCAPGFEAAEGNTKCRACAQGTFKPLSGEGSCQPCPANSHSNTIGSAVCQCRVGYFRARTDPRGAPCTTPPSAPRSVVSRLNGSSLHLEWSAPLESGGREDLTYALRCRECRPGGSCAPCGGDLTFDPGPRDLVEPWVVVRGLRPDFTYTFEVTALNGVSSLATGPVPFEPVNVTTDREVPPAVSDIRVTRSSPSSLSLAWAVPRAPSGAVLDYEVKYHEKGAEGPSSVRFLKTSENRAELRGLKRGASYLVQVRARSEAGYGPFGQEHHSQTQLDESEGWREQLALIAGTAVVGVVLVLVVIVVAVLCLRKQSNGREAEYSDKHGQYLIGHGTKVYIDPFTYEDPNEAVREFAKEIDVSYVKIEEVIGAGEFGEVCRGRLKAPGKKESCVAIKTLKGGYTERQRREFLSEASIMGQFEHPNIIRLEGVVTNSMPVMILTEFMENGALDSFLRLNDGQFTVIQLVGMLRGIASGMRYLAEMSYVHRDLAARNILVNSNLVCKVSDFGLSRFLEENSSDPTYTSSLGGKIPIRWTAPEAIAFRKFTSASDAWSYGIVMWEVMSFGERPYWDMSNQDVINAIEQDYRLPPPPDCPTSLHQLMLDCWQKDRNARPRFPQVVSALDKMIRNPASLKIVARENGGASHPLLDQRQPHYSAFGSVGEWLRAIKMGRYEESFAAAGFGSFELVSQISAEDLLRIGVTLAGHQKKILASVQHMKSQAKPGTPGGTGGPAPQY

EphA4 = EphA4 (Homo sapiens, UniProt P54764); test: Eph receptor kinase activity assay (radiometric), EphA4; assay type: biochemical
EphA4, sequence (P54764 20-986): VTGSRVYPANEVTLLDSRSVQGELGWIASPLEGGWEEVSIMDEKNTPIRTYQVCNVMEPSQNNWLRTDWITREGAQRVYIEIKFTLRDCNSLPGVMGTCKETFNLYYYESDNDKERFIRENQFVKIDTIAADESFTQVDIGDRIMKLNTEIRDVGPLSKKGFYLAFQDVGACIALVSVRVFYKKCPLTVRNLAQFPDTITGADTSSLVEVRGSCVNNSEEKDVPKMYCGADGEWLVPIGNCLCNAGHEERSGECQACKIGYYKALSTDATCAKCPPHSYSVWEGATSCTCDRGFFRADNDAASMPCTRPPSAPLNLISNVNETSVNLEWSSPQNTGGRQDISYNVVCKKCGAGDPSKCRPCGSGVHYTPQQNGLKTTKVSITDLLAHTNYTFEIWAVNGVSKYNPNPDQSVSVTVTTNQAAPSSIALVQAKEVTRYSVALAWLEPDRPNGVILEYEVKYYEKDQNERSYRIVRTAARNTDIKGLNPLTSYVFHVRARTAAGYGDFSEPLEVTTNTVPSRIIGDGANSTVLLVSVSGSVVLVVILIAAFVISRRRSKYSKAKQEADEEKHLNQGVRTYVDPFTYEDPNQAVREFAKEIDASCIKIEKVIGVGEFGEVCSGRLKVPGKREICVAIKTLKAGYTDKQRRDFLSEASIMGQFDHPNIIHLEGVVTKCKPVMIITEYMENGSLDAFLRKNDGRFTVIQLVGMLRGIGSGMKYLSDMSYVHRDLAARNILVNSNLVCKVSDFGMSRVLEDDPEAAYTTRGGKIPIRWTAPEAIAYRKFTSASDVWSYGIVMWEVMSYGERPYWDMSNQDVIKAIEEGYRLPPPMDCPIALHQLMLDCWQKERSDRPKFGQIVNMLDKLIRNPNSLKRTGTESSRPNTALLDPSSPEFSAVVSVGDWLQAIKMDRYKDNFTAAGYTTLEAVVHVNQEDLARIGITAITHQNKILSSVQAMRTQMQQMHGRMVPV

EphA2 = EphA2 (Homo sapiens, UniProt P29317); test: Eph receptor kinase activity assay (radiometric), EphA2; assay type: biochemical
EphA2, sequence (P29317 24-976): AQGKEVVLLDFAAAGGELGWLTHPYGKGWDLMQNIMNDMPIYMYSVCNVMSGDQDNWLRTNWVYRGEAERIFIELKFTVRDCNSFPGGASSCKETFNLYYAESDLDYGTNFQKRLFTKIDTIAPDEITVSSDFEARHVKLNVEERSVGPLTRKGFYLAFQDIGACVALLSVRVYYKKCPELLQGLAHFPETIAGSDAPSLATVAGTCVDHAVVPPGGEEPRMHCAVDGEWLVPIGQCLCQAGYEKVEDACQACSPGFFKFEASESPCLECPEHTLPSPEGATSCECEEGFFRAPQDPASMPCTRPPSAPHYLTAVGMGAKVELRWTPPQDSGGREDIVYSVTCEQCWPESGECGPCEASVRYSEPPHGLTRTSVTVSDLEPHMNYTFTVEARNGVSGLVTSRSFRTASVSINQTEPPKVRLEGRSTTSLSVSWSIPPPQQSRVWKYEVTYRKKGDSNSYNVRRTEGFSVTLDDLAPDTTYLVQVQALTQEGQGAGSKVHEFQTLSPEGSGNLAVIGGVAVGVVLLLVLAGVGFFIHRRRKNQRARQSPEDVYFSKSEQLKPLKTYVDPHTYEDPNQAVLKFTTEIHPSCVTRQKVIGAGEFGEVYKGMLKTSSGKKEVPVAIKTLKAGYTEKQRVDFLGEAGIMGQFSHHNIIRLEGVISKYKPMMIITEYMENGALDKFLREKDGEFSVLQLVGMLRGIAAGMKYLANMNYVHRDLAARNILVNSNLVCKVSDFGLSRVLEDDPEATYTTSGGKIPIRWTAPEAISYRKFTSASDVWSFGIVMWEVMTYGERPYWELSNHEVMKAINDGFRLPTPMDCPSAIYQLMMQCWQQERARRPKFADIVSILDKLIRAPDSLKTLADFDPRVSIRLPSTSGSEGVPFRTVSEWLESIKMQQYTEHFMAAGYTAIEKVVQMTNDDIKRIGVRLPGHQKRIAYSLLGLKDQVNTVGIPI

[1] = system: PI3K/AKT/mTOR signaling in astrocytes; test: Western blot of PI3K/AKT/mTOR/NF-κB signaling in primary murine astrocytes; assay type: cell-based, mouse; details: astrocytes activated 30 minutes with TNFα and IL-1β
Protocol: Mouse primary astrocyte cultures. […] The cell suspension was then cultured at 37° C. in humidified 5% CO2 on poly-L-Lysine (#P4707, Sigma-Aldrich) pre-coated cell culture flasks. Medium was replaced every 3-5 days. The cells reached confluence after 7-10 days. Microglia were separated by shaking the glia culture at 225 rpm at 37° C. for at least 3 h and washing extensively with 1×PBS. Astrocytes were detached by mild trypsinization with Trypsin-EDTA (0.05%) at 37° C. and plated. […] Both cell types were then cultured separately for downstream procedures. […] Finally, microglia and astrocytes of each condition where magnetically separated as before and lysed for downstream gene expression analysis.
SDS-PAGE and Western blot. […] Membranes were blocked in 10% skimmed milk (#M0841, Lab Scientific) in TBS-T (#IBB-180-2L, Boston BioProducts). Primary antibodies were incubated ON at 4° C. and secondary 30 minutes at RT.
HRP-conjugated blots were developed using the KwikQuant imaging system and KwikQuant western blot detection kit (#R1004 Kindle Biosciences).

Aqueous solubility = assay type: physicochemical; details: aqueous medium at pH 7.4 (buffer not specified), pH 7.4, aqueous buffer; read-out: aqueous solubility
[2] = MTT and ATP-viability assays; assay type: cell-based; details: 30 μM

SMILES: C=C(C)[C@H]1Cc2c(ccc3c2O[C@@H]2COc4cc(OC)c(OC)cc4[C@@H]2C3=O)O1 [Rotenone, reference compound]
mitochondrial ROS levels (astrocytes): increases mitochondrial ROS levels

SMILES: O=C(CCl)Nc1ccc2c(Nc3cc(O)ccc3Cl)ncnc2c1 [C9]
ACM chemoattractant activity (splenic CD11b+ monocytes): reduced ACM neurotoxic and chemoattractant activity
ACM neurotoxic activity (N2A neuronal cells): decrease in neurotoxicity; also recorded: reduced ACM neurotoxic

remaining activity at 0.01 µM (EphB3): 49%
remaining activity at 0.1 µM (EphB3): 16%
remaining activity at 0.3 µM (EphB3): 11%
remaining activity at 0.01 µM (EphB4): 30%
remaining activity at 0.1 µM (EphB4): 7%
remaining activity at 0.3 µM (EphB4): 4%
remaining activity at 0.01 µM (EphA4; 10 nM compound, read-out: EphA4 % act 10 nM): 53%
remaining activity at 0.1 µM (EphA4; 100 nM compound, read-out: EphA4 % act 100 nM): 26%
remaining activity at 0.3 µM (EphA4; 300 nM compound, read-out: EphA4 % act 300 nM): 19%
remaining activity at 0.01 µM (EphA2; 10 nM compound, read-out: EphA2 % act 10 nM): 52%
remaining activity at 0.1 µM (EphA2; 100 nM compound, read-out: EphA2 % act 100 nM): 29%
remaining activity at 0.3 µM (EphA2; 300 nM compound, read-out: EphA2 % act 300 nM): 17%
SMILES: O=C(Nc1ccccc1Cl)c1cnc2ccc(-c3cccnc3)cn12 [compound 113, N-(2-Chlorophenyl)-6-(pyridin-3-yl)imidazo[1,2-a]pyridine-3-carboxamide]

SMILES: FC(F)c1nc2ccccc2n1-c1nc(N2CCOCC2)nc(N2CCOCC2)n1 [ZSTK474, reference compound]
phosphorylation of AKT [1]: suppressed

SMILES: O=C(Nc1ccccc1Cl)c1cnc2ccc(C3CCNCC3)cn12 [A-38, N-(2-chlorophenyl)-6-(piperidin-4-yl)imidazo[1,2-a]pyridine-3-carboxamide]
solubility (Aqueous solubility): > 10000 µg/mL
remaining activity at 0.01 µM (EphB3): 37%
remaining activity at 0.1 µM (EphB3): 14%
remaining activity at 0.3 µM (EphB3): 7%
remaining activity at 0.01 µM (EphB4): 68%
remaining activity at 0.1 µM (EphB4): 9%
remaining activity at 0.3 µM (EphB4): 3%
EphA4 % act 10 nM (EphA4; 10 nM compound): 32%
EphA4 % act 100 nM (EphA4; 100 nM compound): 14%
EphA4 % act 300 nM (EphA4; 300 nM compound): 9%
cytotoxicity in MTT and ATP-viability assays [2]: no cytotoxicity
